Experimental findings from article PMC2898741 (Biochemistry, 2009) are described below.

Each structure is given as a SMILES string.

For experiment [1], the target named is T1, riboflavin binding protein (RfBP) (Gallus gallus, UniProt P02752).
T1 sequence (P02752 18-238): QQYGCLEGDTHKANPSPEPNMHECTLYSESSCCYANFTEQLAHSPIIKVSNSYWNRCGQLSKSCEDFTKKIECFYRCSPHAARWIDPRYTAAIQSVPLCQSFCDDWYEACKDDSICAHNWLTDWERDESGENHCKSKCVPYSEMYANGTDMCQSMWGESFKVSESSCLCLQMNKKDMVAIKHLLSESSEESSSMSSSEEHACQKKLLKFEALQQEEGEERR

A further experiment addresses T2, ribonuclease A (RNase) (Bos taurus, UniProt P61823).
T2 sequence (P61823 27-150): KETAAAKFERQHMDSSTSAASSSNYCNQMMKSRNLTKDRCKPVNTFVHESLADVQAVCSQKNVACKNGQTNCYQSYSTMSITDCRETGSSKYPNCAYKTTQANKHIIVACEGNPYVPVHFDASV
Format: binding.

Experiment [2] has as its target T1, riboflavin binding protein (RfBP). This is another data set of the same source.

As for `C[As](O)O` [MMA], the “absorbance and fluorescence titration; stopped-flow; DTNB protection” value in experiment [1] was “PSAO and MMA bind almost quantitatively to reduced unfolded RfBP”.
For `O[As](O)O` [arsenite], the “absorbance and fluorescence titration; DTNB protection” value on ribonuclease A (RNase) was “Figure 7A demonstrates the binding of arsenite to reduced bovine pancreatic RNase using absorbance and fluorescence quenching”. The “absorbance (252 nm) and fluorescence titration; DTNB protection” value in experiment [2] was “PSAO and arsenite also bind to reduced RfBP with a strong fluorescence quenching”.
